Results as given in US20190380986A1, “METHOD FOR PRODUCING EXTRACTS ENRICHED WITH SULFOXIDE-FREE ORGANOSULFUR COMPOUNDS, S-ALKENYL-LCYSTEINE AND S-ALKYL-LCYSTEINE, FROM PLANT RAW MATERIALS, AND USES THEREOF IN THE TREATMENT OF INFLAMMATORY DISEASES” (CANVAX BIOTECH, S.L, priority 2017, published 2019).
“Also recorded” adds a separate entry of the source. Structures can show the parent of a compound that is named as a salt.

Key:
Format in all cases: in vivo, Dark Agouti rats
[1] = tested on: EAE (experimental autoimmune encephalomyelitis); assay: Clinical assessment of mobility in rats with EAE induced by MOG/FCA; settings: for Change in the clinical assessment of mobility between day 35 and day 14: Example 3, NAC and SAC oral 50 mg/kg, treatment for 21 days, FIG. 3; for Change in the clinical assessment of mobility between days 35 and 14: FIG. 5
Procedure: Next, an experiment was designed to study the effect of SAC in rats with EAE (experimental autoimmune encephalomyelitis), a model of multiple sclerosis widely used for the development of new treatments for this neurodegenerative disease in humans. To evaluate the effect of this compound on the disease, the change in clinical parameters of mobility in each of the joints and in the tail (clinical score or clinical assessment) was measured, as well as the biomarkers of oxidative stress that explain the change in joint mobility in rats.
(§1) 70 Dark Agouti rats were used, 35 females and 35 males. Each group of 10 animals had 5 male rats housed in individual boxes and 5 females equally maintained in individual boxes. The following groups were included: i) Controls (untreated healthy animals); ii) vehicle (animals injected in the tail with 100 microlitres of Freund's complete adjuvant (FCA) but without the EAE-inducing peptide, the MOG peptide ([…]); iii) EAE (animals injected once into the tail with 150 μg of MOG (Sigma-Aldrich) in 100 microlitres of FCA); iv) EAE+dimethyl fumarate (EAE+DMF); v) EAE+N-acetyl cysteine (EAE+NAC); and vi) EAE+SAC. The treatments with NAC and SAC were administered to the animals orally using a probe and at a dose of 50 mg/kg of animal weight.
The mobility of the rats was evaluated using the method described by Pérez-Nievas (Pérez-Nievas, 2010) in which 0 is equivalent to not having any affected joint or tail; 1 equals paralysis in the tail; 2 equals partial mobility in the hind legs; 3 equals paralysis in the hind legs; 4 equals paralysis in the hind legs and partial mobility in the front legs and 5 equals a dying animal or that must be sacrificed for ethical reasons.
(§2) The statistical analysis was performed with the SPSS program (SPSS Ibérica, Madrid, Spain). The data are reported as mean±standard deviation (SD). […] To analyse the correlation between the biochemical parameters and the mobility of the animals at 35 days (Clinical assessment-35), Spearman's rho correlation coefficient was used. The level of statistical significance was established at p<0.05.
Next, an experiment was designed to study whether the effect of NAC and SAC were different depending on the dose administered in animal models of EAE. For this, the change in clinical parameters of mobility in each of the joints and the tail (clinical score or clinical assessment) was measured at 2 different doses of NAC and SAC; 18 mg/kg and 50 mg/kg administered orally for 5 days a week and following the same experimental design as Example 3.
(§3) 70 Dark Agouti rats, 35 females and 35 males, were used. Each group of 10 animals had 5 male rats housed in individual boxes and 5 females equally maintained in individual boxes. The following groups were included: i) Controls (untreated healthy animals); ii) vehicle (animals injected in the tail with 100 microlitres of Freund's complete adjuvant (FCA) but without the EAE-inducing peptide, the MOG peptide; iii) EAE (animals injected 1 time in the tail with 150 μg of MOG (Sigma-Aldrich) in 100 microlitres of FCA); iv) EAE+N-acetyl cysteine at 18 mg/kg (EAE+NAC18); v) EAE+N-acetyl cysteine at 50 mg/kg (EAE+NACSO); vi) EAE+SAC at 18 mg/kg (EAE+SAC18) and vii) EAE+SAC at 50 mg/kg (EAE+SAC50). The treatments with NAC and SAC were administered to the animals orally 5 days a week at a dose of 18 mg/kg or 50 mg/kg of the animal's weight.
The analysis of the mobility of the animals, their sacrifice, tissue management, determination of the total proteins and the statistical analysis, was carried out as previously described in Example 3.

[2] = tested on: GSH/GSSG ratio and lipoperoxides (LPO); assay: Biomarkers of oxidative stress (LPO, GSH/GSSG ratio) in brain and spinal cord of EAE rats; settings: FIG. 4; for GSH/GSSG ratio in brain and spinal cord: Example 3, end of study (35 days), NAC and SAC oral 50 mg/kg, versus untreated EAE
Source text: as §1
At the end of the study, the animals were decapitated at a controlled temperature using intraperitoneal anaesthesia with ketamine 75 mg/kg (Imalgene 100 mg/ml, Merial Laboratories, Barcelona, Spain). The brains, blood and spinal cord were extracted, weighed and homogenized with a mechanical homogenizer (Tempest Virtis), using 20 mM Tris at pH 7.4 as a buffer. The samples were centrifuged cold and the supernatants were immediately collected and stored at −80° C.
Total protein levels were quantified by the Bradford method and referenced to the original tissue weight. Oxidative stress parameters such as lipid peroxidation (LPO), total glutathione (tG) and reduced glutathione (GSH) were then measured in blood, brain and spinal cord using kits from Bioxytech SA (Oxis International, Portland, Oreg., USA): LPO-586, GSH-420 and GSH-400, respectively. Oxidised glutathione levels (GSSG) were calculated by subtracting reduced glutathione from total glutathione and the GSH/GSSG ratio was calculated.
as §2

[3] = tested on: LBP (lipopolysaccharide binding protein); assay: Soluble LBP levels (ELISA) in brain, spinal cord and blood of EAE rats; settings: authors' observation in the background section
Procedure: as §3, with “weight. […]” for “weight.”
(§4) The measurement of lipopolysaccharide-binding soluble lipoprotein (LBP) levels was performed with the LBP soluble ELISA Kit (Enzo®, USA), in a sandwich ELISA system following the manufacturer's instructions. The levels of lipopolysaccharide (LPS) in blood and spinal cord were measured with the Pierce LAL Chromogenic endotoxin quantification kit supplied by Thermo Scientific (USA), following the manufacturer's instructions.® The data are presented as endotoxin units per milligram of tissue protein.

[4] = tested on: LPS (bacterial lipopolysaccharide); assay: LPS levels (LAL chromogenic endotoxin kit) in blood and spinal cord of EAE rats; settings: Example 4, 50 mg/kg orally, SAC compared to NAC at the same concentration, FIG. 7
Procedure: as §3, with “weight. […]” for “weight.”
as §4

[5] = Example 4, 18 mg/kg orally 5 days a week
[6] = Example 4, 50 mg/kg orally 5 days a week

Structure (SMILES) | Change in the clinical assessment of mobility between day 35 and day 14 [1] | GSH/GSSG ratio in brain and spinal cord [2] | Level of LBP after administration in animal models (pro-inflammatory effect) [3] | Change in the clinical assessment of mobility between days 35 and 14 [1, 5] | Change in the clinical assessment of mobility between days 35 and 14 [1, 6] | Levels of LPS in blood and spinal cord [4] | Oxidative damage induced by MOG/FCA (LPO, GSH/GSSG), SAC compared with NAC ([2]; Example 3, oral 50 mg/kg, 35 days)
COC(=O)/C=C/C(=O)OC [DMF, dimethyl fumarate] | showed a reduction of the clinical assessment of mobility between day 35 and 14 | increased the GSH/GSSG ratio with respect to untreated animals (EAE); also recorded: induces an increase in the GSH/GSSG ratio | – | – | – | – | –
CC(=O)N[C@@H](CS)C(=O)O [NAC, N-acetylcysteine] | showed a reduction of the clinical assessment of mobility between day 35 and 14 | increased the GSH/GSSG ratio with respect to untreated animals (EAE); also recorded: induces an increase in the GSH/GSSG ratio | the level of LBP (lipopolysaccharide binding protein) increases | did not cause a reduction of the clinical assessment of mobility between days 35 and 14 | equally effective with respect to the group of animals with EAE without treatment | – | –
C=CCSC[C@H](N)C(=O)O [SAC, S-allyl-L-cysteine] | showed a reduction of the clinical assessment of mobility between day 35 and 14 | increased the GSH/GSSG ratio with respect to untreated animals (EAE); also recorded: induces an increase in the GSH/GSSG ratio | – | caused a reduction in the clinical assessment of mobility equivalent to that caused by 50 mg/kg of NAC or SAC | equally effective with respect to the group of animals with EAE without treatment | significantly reduced the levels of LPS in blood and spinal cord compared to NAC | more effective than NAC in minimising oxidative damage induced by MOG/FCA; also recorded: corrects the oxidative damage induced by MOG/FCA to a higher percentage than the NAC
